Assay results published in US9340575B2, “Agonists and antagonists of the urotensinergic system” (INSTITUT NATIONAL DE LA RECHERCHE SCIENTIFIQUE, priority 2011, dated 2016).
Like-named read-outs stand apart in the source and are kept apart here. Marks after values point to notes of the source that are not given here.

Columns and labels:
[1] = molecular target: T1, human urotensin II receptor (UT) (Homo sapiens, UniProt Q9UKP6); assay: Competitive radioligand binding on CHO-UT cells
T1 construct: expressed in transfected cells; host or cells: CHO cells (CHO-UT), stably transfected, G418 selection
T1 sequence (Q9UKP6 1-389): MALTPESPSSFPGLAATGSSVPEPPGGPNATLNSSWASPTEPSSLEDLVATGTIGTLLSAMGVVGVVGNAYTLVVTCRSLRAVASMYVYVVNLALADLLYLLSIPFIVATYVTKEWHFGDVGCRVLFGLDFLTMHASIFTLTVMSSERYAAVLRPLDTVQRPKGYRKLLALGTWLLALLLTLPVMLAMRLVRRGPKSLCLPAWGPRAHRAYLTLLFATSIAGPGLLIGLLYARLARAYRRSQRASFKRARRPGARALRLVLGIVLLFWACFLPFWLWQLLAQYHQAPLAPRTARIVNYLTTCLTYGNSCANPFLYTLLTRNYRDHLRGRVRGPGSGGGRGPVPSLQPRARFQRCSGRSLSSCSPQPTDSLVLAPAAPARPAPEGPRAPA
Procedure: Transfected CHO cells expressing the human urotensin receptor (CHO-UT) were maintained in Ham-F12 medium with 10% fetal bovine serum (FBS), 2 mM L-glutamine, 100 UI/mL each of penicillin and streptomycin, and 400 μg/mL G418. […] Binding assays were following known literature procedures using CHO cells stably transfected with hGPR14. […] After 90 min of incubation at room temperature, cells were washed, lysed, and the cell-bound radioactivity was quantified using a γ-counter. […] The cells were then washed, lysed, and the radioactivity counted on a γ-counter (1470 Automatic Gamma Counter, Perkin Elmer). Binding and functional experiments were performed at least in triplicate and data, expressed as mean±S.E.M, were analyzed using the Prism software (Graph Pad Software, San Diego, Calif.). In all experiments, n represents the total number of animals studied or individual assays performed. The EC50, pEC50, pIC50 values as well as the Emax value were determined from the concentration-response curves using a sigmoidal dose-response fit with variable slope. […] The slope is calculated from the double reciprocal plot of equiactive concentrations of agonist in the presence and absence of antagonist.

rat thoracic aorta rings = type: cell-based; settings: for Aortic Ring contraction pEC50: endothelium-denuded rat thoracic aorta; for Aortic Ring contraction Emax (%): percentage of contraction induced by KCl (40 mM); for Aortic Ring contraction Emax (%), maximum efficacy at 10^−5.5M: percentage of KCl (40 mM) contraction
Procedure: Binding and functional experiments were performed at least in triplicate and data, expressed as mean±S.E.M, were analyzed using the Prism software (Graph Pad Software, San Diego, Calif.). In all experiments, n represents the total number of animals studied or individual assays performed. The EC50, pEC50, pIC50 values as well as the Emax value were determined from the concentration-response curves using a sigmoidal dose-response fit with variable slope. […] The slope is calculated from the double reciprocal plot of equiactive concentrations of agonist in the presence and absence of antagonist.

anaesthetized rats = assay: Hemodynamic assessment (arterial blood pressure) in anaesthetized rats; type: in vivo, rat; settings: for Hemodynamic response to bolus i.v. injection / Time of hypotension nadir / Time of pressor phase peak: 0.01 μmol/kg i.v.; for Response to repeated injections: 10 nmol/kg twice, 30 min interval
Procedure: Male Sprague-Dawley rats, weighing 350-400 g, were anaesthetized by isoflurane inhalation delivered in 100% oxygen (1 l/min) from an Ohmeda Tec 4 anaesthetic vaporizer (Somatechnology, Inc., Bloomfield, Conn., USA). Anaesthesia was maintained by mask inhalation of isoflurane vaporized at concentrations of up to 3% in the induction phase, at 1.5% during acute surgical procedures and at 0.8-1.0% during experimental observations. […]. […] A period of stabilisation of 30 min was observed and the following experimental protocols were then performed and arterial blood pressure was evaluated. During isoflurane inhalation, no breathing complications or changes in blood pressure were observed. […].
In a preliminary study, individual rats received a single i.v. injection of hUII ranging from 1 to 30 nmol/kg. A dose-response curve, reflecting the effect of hUII on the change in blood pressure, was then determined.
In this set of experiments, five groups of rats were used. […] […]. Hemodynamic changes were continuously captured by the pressure probe over a period of 1 h. The maximum rise and the maximum drop in blood pressure was determined and analyzed using the PowerLab software (ADInstruments, Colorado Springs, Colo., USA).
In the control group, the rats received two doses of hUII (10 nmol/kg) with a 30 min interval between the first and second injection.

[2] = 125I-hUII 0.2 nM, CHO-UT cells, 95% confidence limits in parentheses, read-out: Binding IC50

Binding affinity for UT (in words) [1] | EC50 (rat thoracic aorta rings) [µM] | Aortic Ring contraction pEC50 (rat thoracic aorta rings) | SMILES | Aortic Ring contraction Emax (%) (rat thoracic aorta rings) | other results
 |  |  | CC(C)[C@H](NC(=O)[C@@H]1CSSC[C@H](NC(=O)[C@H](C)N)C(=O)N[C@@H](Cc2ccccc2)C(=O)N[C@@H](Cc2ccc(I)cc2)C(=O)N[C@@H](CCCCN)C(=O)N[C@@H](Cc2ccc(O)cc2)C(=O)N1)C(=O)O [Compound 5, H-Ala-Cys-Phe-Phe(I)-Lys-Tyr-Cys-Val-OH] |  | Drop in binding affinity on substitution of Trp ([1]; versus native peptide): 4 fold
high binding affinity | 0.251 | 6.60 ± 0.15 | CC(C)[C@H](NC(=O)[C@@H]1CSSC[C@H](NC(=O)[C@H](C)N)C(=O)N[C@@H](Cc2ccccc2)C(=O)N[C@@H](c2ccccc2)C(=O)N[C@@H](CCCCN)C(=O)N[C@@H](Cc2ccc(O)cc2)C(=O)N1)C(=O)O [Compound 14, H-Ala-Cys-Phe-Phg-Lys-Tyr-Cys-Val-OH] | 102 ± 9 | IC50 [1, 2]: 29 nM
 |  |  | CC(C)[C@H](NC(=O)[C@@H]1CSSC(C)(C)[C@H](NC(=O)[C@H](C)N)C(=O)N[C@@H](Cc2ccccc2)C(=O)N2CCc3ccccc3[C@H]2C(=O)N[C@@H](CCCCN)C(=O)N[C@@H](Cc2ccc(O)cc2)C(=O)N1)C(=O)O [Compound 20, H-Ala-Pen-Phe-Tiq-Lys-Tyr-Cys-Val-OH] |  | IC50 [1, 2]: > 10000 nM
high binding affinity | 0.022 | 7.66 ± 0.11 | CC(C)[C@H](NC(=O)[C@@H]1CSSC[C@H](NC(=O)[C@H](C)N)C(=O)N[C@@H](Cc2ccccc2)C(=O)N2CCc3ccccc3[C@H]2C(=O)N[C@@H](CCCCN)C(=O)N[C@@H](Cc2ccc(O)cc2)C(=O)N1)C(=O)O [Compound 16, H-Ala-Cys-Phe-Tiq-Lys-Tyr-Cys-Val-OH] | 126 ± 5 | Agonist behaviour in aortic ring contraction (in words) (rat thoracic aorta rings): contractile efficacy and potency comparable to the endogenous peptides
high affinity | 0.007 | 8.09±0.18 | CC(C)[C@H](NC(=O)[C@@H]1CSSC[C@H](NC(=O)[C@H](C)N)C(=O)N[C@@H](Cc2ccccc2)C(=O)N[C@@H](Cc2c[nH]c3ccccc23)C(=O)N[C@@H](CCCCN)C(=O)N[C@@H](Cc2ccc(O)cc2)C(=O)N1)C(=O)O [Compound 2, reference compound] | 100±6 | IC50 ([1]; Binding (125I-URP) IC50 (nM), radioligand 125I-URP, recombinant human UT): 31.8 nM; IC50 ([1]; Binding (125I-hUII) IC50 (nM), radioligand 125I-hUII, recombinant human UT): 12.4 nM; Binding (125I-hUII) pIC50 ([1]; radioligand 125I-hUII, recombinant human UT): 7.90 ± 0.11; Hemodynamic response to bolus i.v. injection (anaesthetized rats): biphasic hemodynamic response; Time of hypotension nadir (anaesthetized rats): ~6 min; Time of pressor phase peak (anaesthetized rats): ~1 min; Response to repeated injections (anaesthetized rats): equivalent biphasic responses; Effect of prior URP injection on hUII hemodynamic response (anaesthetized rats; hUII 30 min after URP bolus, 10 nmol/kg): such observation was not made
dramatic loss of binding affinity | > 1 | <6 | CC(C)[C@H](NC(=O)[C@@H]1CSSC[C@H](NC(=O)[C@H](C)N)C(=O)N[C@@H](Cc2ccccc2)C(=O)N2Cc3ccccc3C[C@H]2C(=O)N[C@@H](CCCCN)C(=O)N[C@@H](Cc2ccc(O)cc2)C(=O)N1)C(=O)O [Compound 18, H-Ala-Cys-Phe-Tic-Lys-Tyr-Cys-Val-OH] |  | Aortic Ring contraction Emax (%), maximum efficacy at 10^−5.5M (rat thoracic aorta rings): 43%
 | 0.001 | 9.08 ± 0.25 | CC(C)[C@H](NC(=O)[C@@H]1CSSC[C@H](NC(=O)[C@H](CC(=O)O)NC(=O)[C@@H]2CCCN2C(=O)[C@@H](NC(=O)[C@@H](N)CCC(=O)O)[C@@H](C)O)C(=O)N[C@@H](Cc2ccccc2)C(=O)N[C@@H](Cc2c[nH]c3ccccc23)C(=O)N[C@@H](CCCCN)C(=O)N[C@@H](Cc2ccc(O)cc2)C(=O)N1)C(=O)O [Compound 1, reference compound] | 117 ± 7 | Hemodynamic response to bolus i.v. injection (anaesthetized rats): biphasic hemodynamic response; Time of hypotension nadir (anaesthetized rats): ~6 min; Time of pressor phase peak (anaesthetized rats): ~1 min; Response to repeated injections (anaesthetized rats): equivalent biphasic responses; Effect of prior hUII injection on hypotensive effect of URP (anaesthetized rats; URP injected 30 min after hUII, 10 nmol/kg): significantly reduced; Dose giving the most significant drop in blood pressure (anaesthetized rats; single i.v. injection, 1 to 30 nmol/kg tested): 10 nmol/kg; Aortic Ring contraction pEC50 (rat thoracic aorta rings; listed as hUII): 8.98±0.21; Aortic Ring contraction Emax (%) (rat thoracic aorta rings; listed as hUII): 124±8%
high binding affinity | 0.117 | 6.93 ± 0.09 | CC(C)[C@H](NC(=O)[C@@H]1CSSC[C@H](NC(=O)[C@H](C)N)C(=O)N[C@@H](Cc2ccccc2)C(=O)N[C@H](c2ccccc2)C(=O)N[C@@H](CCCCN)C(=O)N[C@@H](Cc2ccc(O)cc2)C(=O)N1)C(=O)O [Compound 15, [D-Phg^4]URP] | 116 ± 5 | IC50 [1, 2]: 29 nM
low binding affinity | 0.181 | 6.42 ± 0.13 | CC(C)[C@H](NC(=O)[C@@H]1CSSC[C@H](NC(=O)[C@H](C)N)C(=O)N[C@@H](Cc2ccccc2)C(=O)N[C@H]2Cc3c([nH]c4ccccc34)CN(C2=O)[C@@H](CCCCN)C(=O)N[C@@H](Cc2ccc(O)cc2)C(=O)N1)C(=O)O [Compound 12, H-Ala-Cys-Phe-Aia-Lys-Tyr-Cys-Val-OH] | 51 ± 4 | 
 | > 1 | <6 | CC(C)[C@H](NC(=O)[C@@H]1CSSC[C@H](NC(=O)[C@H](C)N)C(=O)N[C@@H](Cc2ccccc2)C(=O)N[C@@H](CC2CCCCC2)C(=O)N[C@@H](CCCCN)C(=O)N[C@@H](Cc2ccc(O)cc2)C(=O)N1)C(=O)O [Compound 6, H-Ala-Cys-Phe-Cha-Lys-Tyr-Cys-Val-OH] |  | Reduction in binding affinity compared to compound 5 ([1]; versus compound 5): 3 fold; Agonist behaviour in aortic ring contraction (in words) (rat thoracic aorta rings): full but weak agonist; Aortic Ring contraction Emax (%), maximum efficacy at 10^−5.5M (rat thoracic aorta rings): 77^d %
high affinity for UT |  |  | CC(C)[C@H](NC(=O)[C@@H]1CSSC[C@H](NC(=O)[C@H](C)N)C(=O)N[C@@H](Cc2ccccc2)C(=O)N2Cc3[nH]c4ccccc4c3C[C@H]2C(=O)N[C@@H](CCCCN)C(=O)N[C@@H](Cc2ccc(O)cc2)C(=O)N1)C(=O)O [Compound 10, H-Ala-Cys-Phe-Tpi-Lys-Tyr-Cys-Val-OH] | 139 ± 17 | Agonist behaviour in aortic ring contraction (in words) (rat thoracic aorta rings): vasoconstriction comparable to hUII or URP with however a slightly reduced potency
